# Reference: patent US7034042B2, “N-(4-aryloxypiperidin-1-ylalkyl) cinnamic amides as CCR33 receptor antagonists” (Novartis AG, priority 2000, dated 2006)
# pIC50: −log10 of the molar value.
# Biological target: T1, human CCR-3 (Homo sapiens, UniProt P51677)
# T1 construct: expressed in transfected cells; membranes
# T1 sequence (P51677 1-355): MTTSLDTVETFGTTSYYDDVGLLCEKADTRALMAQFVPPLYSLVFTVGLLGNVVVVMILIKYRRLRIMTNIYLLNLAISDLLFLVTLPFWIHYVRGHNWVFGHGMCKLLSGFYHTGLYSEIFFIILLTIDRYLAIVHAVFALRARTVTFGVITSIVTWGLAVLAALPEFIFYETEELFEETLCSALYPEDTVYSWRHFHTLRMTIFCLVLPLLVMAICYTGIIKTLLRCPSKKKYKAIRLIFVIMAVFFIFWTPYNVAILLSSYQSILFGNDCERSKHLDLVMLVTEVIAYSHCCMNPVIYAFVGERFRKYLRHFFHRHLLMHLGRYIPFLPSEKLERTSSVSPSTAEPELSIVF
# Test: CCR-3 Binding Assay (inhibition of [125I]-human eotaxin binding, SPA)
# Conditions: binding of [125I]-human eotaxin to membranes of RBL-2H3 cells stably expressing CCR3; 4 hours at room temperature
# Procedure: In this assay the effect of agents of the invention on the binding of human eotaxin to human CCR-3 is determined. Recombinant cells expressing human CCR-3 are captured by wheatgerm agglutinin (WGA) polyvinyltoluidene (PVT) SPA beads (available from Amersham), through a specific interaction between the WGA and carbohydrate residues of glycoproteins on the surface of the cells. [^125I]-human eotaxin (available from Amersham) binds specifically to CCR-3 receptors bringing the [^125I]-human eotaxin in close proximity to the SPA beads. Emitted â-particles from the [^125I]-human eotaxin excite, by its proximity, the fluorophore in the beads and produce light.
# Preparation of Assay Buffer: 5.96 g HEPES and 7.0 g sodium chloride are dissolved in distilled water and 1M aqueous CaCl2 (1 mL) and 1M aqueous MgCl2 (5 mL) are added. The pH is adjusted to 7.6 with NaOH and the solution made to a final volume of 1 L using distilled water. 5 g bovine serum albumin and 0.1 g sodium azide are then dissolved in the solution and the resulting buffer stored at 4° C. A Complete™ protease inhibitor cocktail tablet (available from Boehringer) is added per 50 mL of the buffer on the day of use.
# Preparation of Homogenisation Buffer: Tris-base (2.42 g) is dissolved in distilled water, the pH of the solution is adjusted to 7.6 with hydrochloric acid and the solution is diluted with distilled water to a final volume of 1 L. The resulting buffer is stored at 4° C. A Complete™ protease inhibitor cocktail tablet is added per 50 mL of the buffer on the day of use.
# Preparation of membranes: Confluent rat basophil leukemia (RBL-2H3) cells stably expressing CCR3 are removed from tissue culture flasks using enzyme-free cell dissociation buffer and resuspended in phosphate-buffered saline. […]
# The assay is performed in a final volume of 250 μL per well of an Optiplate (ex Canberra Packard). […] The resulting scintillations are counted using a Canberra Packard TopCount, each well being counted for 1 minute. […]
row,SMILES,pIC50
1,"COc1ccc(C#N)cc1/C=C/C(=O)NC(CO)CN1CCC(Oc2ccc(F)cc2)CC1 (stereo not drawn) [Example 1, (E)-3-(5-Cyano-2-methoxy-phenyl)-N-{2-[4-(4-fluoro-phenoxy)-piperidin-1-yl]-1-hydroxymethyl-ethyl}-acrylamide]",7.80
2,"COc1ccc(C#N)cc1/C=C/C(=O)N[C@H](CC(=O)N(C)CCO)CN1CCC(Oc2ccc(F)cc2)CC1 [Example 14, (E)-3-(5-Cyano-2-methoxy-phenyl)-N-((R)-2-[4-(4-fluoro-phenoxy)-piperidin-1-yl]-1-{[(2-hydroxy-ethyl)-methyl-carbamoyl]-methyl}-ethyl)-acrylamide]",7.96
3,"COc1ccc(C#N)cc1/C=C/C(=O)N[C@H](CNC(C)=O)CN1CCC(Oc2ccc(F)cc2)CC1 [Example 16, (E)-N-{(R)-1-(Acetylamino-methyl)-2-[4-(4-fluoro-phenoxy)-piperidin-1-yl]-ethyl}-3-(5-cyano-2-methoxy-phenyl)-acrylamide]",8.55
